The target in assay [1] is T1, Melanocortin receptor 4 (Homo sapiens, UniProt P32245). Briefly: Displacement of [125I]-[Nle4-D-phe7]-alpha-MSH from to human MC4R expressed in CHO cells incubated for 2 hrs by liquid scintillation counting method. The class given is cell-based.
The target in assay [2] is T1, Melanocortin receptor 4. Briefly: Antagonist activity at human MC4R expressed in CHO cells assessed as decrease in alpha-MSH induced cAMP level by measuring equilibrium binding constant preincubated for 30 mins followed by alpha-MSH addition measured after 30 mins by HTRF method. To be noted: time 60.0 min. Type of assay: functional, cell-based.

Consider 10 molecules from ChEMBL document CHEMBL5137067, “Spiro-naphthyridine Antagonists of the Melanocortin Receptor 4 for the Treatment of Cachexia Associated with Chronic Illness” (ACS Med Chem Lett, 2022).

SMILES strings stand for the structures.

T1 sequence (P32245 whole entry): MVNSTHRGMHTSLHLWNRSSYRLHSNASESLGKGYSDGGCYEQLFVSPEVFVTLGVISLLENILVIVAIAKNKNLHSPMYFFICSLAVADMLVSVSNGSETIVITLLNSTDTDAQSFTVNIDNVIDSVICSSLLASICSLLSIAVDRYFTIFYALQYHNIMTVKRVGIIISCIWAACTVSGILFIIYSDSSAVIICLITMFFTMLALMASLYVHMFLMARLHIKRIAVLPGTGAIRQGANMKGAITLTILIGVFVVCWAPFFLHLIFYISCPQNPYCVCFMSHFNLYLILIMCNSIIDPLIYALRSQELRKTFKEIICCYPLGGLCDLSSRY

As to `Cc1nc2c(cc1-c1ncccn1)CC[C@@]1(CCN(C(=O)C(C)c3cc(OC(F)F)ncc3Cl)C1)N2` (single isomer, unassigned), the affinity on Melanocortin receptor 4 [1], expressed as Ki, was 540 pM. The antagonist dissociation constant (Kb) on Melanocortin receptor 4 [2] (filed as antagonist) is 180 pM. The molecule `COc1cc([C@@H](C)C(=O)N2CC[C@@]3(CCc4cc(-c5nc6ccccn6n5)c(C)nc4N3)C2)c(Cl)cn1` gave an inhibition constant Ki on Melanocortin receptor 4 [1] of 280 pM. In addition, the antagonist dissociation constant (Kb) at Melanocortin receptor 4 [2] (filed as antagonist) was 70 pM.

Molecule `Cc1nc2c(cc1-c1ncccn1)CC[C@@]1(CCN(C(=O)[C@H](C)c3ccc(OC(F)F)nc3)C1)N2` returned a Ki on Melanocortin receptor 4 [1] of more than 200000 pM.

With `COc1cc([C@@H](C)C(=O)N2CC[C@@]3(CCc4cc(-c5nnn(C)n5)c(C)nc4N3)C2)c(Cl)cn1`, at Melanocortin receptor 4 [2] (filed as antagonist), the Kb amounted to 49 pM. For `COc1cc([C@@H](C)C(=O)N2CC[C@]3(CCc4cc(-c5nnn(C)n5)c(C)nc4N3)C2)c(Cl)cn1`, on Melanocortin receptor 4 [2] (filed as antagonist), the antagonist dissociation constant (Kb) turned out to be 1200 pM. `Cc1nc2c(cc1-c1ncccn1)CC[C@@]1(CCN(C(=O)C(C)c3ccc(Cl)cc3Cl)C1)N2` (stereo partly drawn) gave a Ki on Melanocortin receptor 4 [1] of 82000 pM. Moreover, the Kb on Melanocortin receptor 4 [2] was more than 96000 pM.

As for `COc1cc(OC)cc([C@@H](C)C(=O)N2CCC3(CCc4cc(-c5cnn(C)c5)c(C)nc4N3)C2)c1` (single isomer, unassigned), the antagonist dissociation constant (Kb) on Melanocortin receptor 4 [2] (filed as antagonist) is 400 pM.

Consider `Cc1nc2c(cc1-c1ncccn1)CC[C@@]1(CCN(C(=O)[C@@H](C)c3ccc(OC(F)F)nc3)C1)N2`, for which the Kb at Melanocortin receptor 4 [2] (filed as antagonist) was 8500 pM. In the case of `COc1cc([C@@H](C)C(=O)N2CC[C@@]3(CCc4cc(-c5nc(C(F)F)n(C)n5)c(C)nc4N3)C2)c(Cl)cn1`, the Kb on Melanocortin receptor 4 [2] (filed as antagonist) is 80 pM. On Melanocortin receptor 4 [1], `Cc1nc2c(cc1-c1cnn(C)c1)CC[C@@]1(CCN(C(=O)C(C)c3ccc(OC(F)F)nc3)C1)N2` (stereo partly drawn) displayed an inhibition constant (Ki) of 57000 pM.
